In ChEMBL document CHEMBL1221245, “A physical properties based approach for the exploration of a 4-hydroxybenzothiazolone series of beta2-adrenoceptor agonists as inhaled long-acting bronchodilators” (Bioorg Med Chem Lett, 2010):
pKi: −log10 of the molar value.

Tests used:
[1] = biological target: Beta-2 adrenergic receptor (Homo sapiens, UniProt P07550)
Description: Displacement of [3H]CGP12177 from human beta2 adrenoceptor

[2] = biological target: Beta-1 adrenergic receptor (Homo sapiens, UniProt P08588)
Description: Displacement of [3H]CGP12177 from human beta-1 adrenoceptor

[3] = Agonist activity at beta 1 adrenoceptor in electrically-stimulated guinea pig left atrium at 1 uM; assay type: functional, Cavia porcellus, Cardiac atrium

Sequence of Beta-1 adrenergic receptor (P08588 whole entry): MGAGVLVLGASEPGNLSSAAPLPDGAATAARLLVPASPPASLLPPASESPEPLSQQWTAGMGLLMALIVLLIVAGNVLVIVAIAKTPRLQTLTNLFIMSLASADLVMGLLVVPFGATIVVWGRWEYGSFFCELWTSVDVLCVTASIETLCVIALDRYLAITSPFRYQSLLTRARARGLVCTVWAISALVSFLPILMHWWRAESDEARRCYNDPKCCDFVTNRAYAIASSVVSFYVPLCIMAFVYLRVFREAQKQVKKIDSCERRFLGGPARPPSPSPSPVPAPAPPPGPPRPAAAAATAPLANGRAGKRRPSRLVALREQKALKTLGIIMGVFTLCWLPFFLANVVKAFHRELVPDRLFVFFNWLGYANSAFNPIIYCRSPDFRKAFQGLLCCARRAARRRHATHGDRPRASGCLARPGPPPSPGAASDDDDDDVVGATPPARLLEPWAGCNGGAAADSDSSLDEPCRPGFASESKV
Sequence of Beta-2 adrenergic receptor (P07550 whole entry): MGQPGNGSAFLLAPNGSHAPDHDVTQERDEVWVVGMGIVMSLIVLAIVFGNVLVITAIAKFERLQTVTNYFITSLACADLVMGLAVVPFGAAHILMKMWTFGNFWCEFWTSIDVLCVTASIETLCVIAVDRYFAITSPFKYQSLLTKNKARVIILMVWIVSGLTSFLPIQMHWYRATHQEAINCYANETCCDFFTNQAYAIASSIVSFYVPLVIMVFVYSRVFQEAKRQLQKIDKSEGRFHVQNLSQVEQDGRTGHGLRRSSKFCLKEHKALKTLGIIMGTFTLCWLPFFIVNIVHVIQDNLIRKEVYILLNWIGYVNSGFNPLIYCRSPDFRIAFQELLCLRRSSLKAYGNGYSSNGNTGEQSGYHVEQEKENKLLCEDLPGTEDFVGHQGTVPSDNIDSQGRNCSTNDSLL

CCC(CC)CNC[C@H](O)c1ccc(O)c2[nH]c(=O)sc12
pKi [1]: 7.61 | pKi [2]: 6.77

C[C@@H](NC[C@H](O)c1ccc(O)c2[nH]c(=O)sc12)C1CCCCC1
Activity [3]: 69% | pKi [1]: 9.00 | pKi [2]: 8.82

C[C@H](NC[C@H](O)c1ccc(O)c2[nH]c(=O)sc12)C1CCCCC1
pKi [1]: 7.60 | pKi [2]: 7.41

CC(C)(C)CC(C)(C)NC[C@H](O)c1ccc(O)c2[nH]c(=O)sc12
pKi [1]: 8.72 | pKi [2]: 8.04

O=c1[nH]c2c(O)ccc([C@@H](O)CNCC34CC5CC(CC(C5)C3)C4)c2s1
pKi [1]: 7.58 | pKi [2]: 7.45

O=c1[nH]c2c(O)ccc([C@@H](O)CNCCc3ccccc3)c2s1
pKi [1]: 8.74 | pKi [2]: 8.42

Cc1onc(-c2ccccc2)c1CNC[C@H](O)c1ccc(O)c2[nH]c(=O)sc12
Activity [3]: 19% | pKi [1]: 7.70 | pKi [2]: 6.04

O=c1[nH]c2c(O)ccc([C@@H](O)CNCCCc3ccccc3)c2s1
pKi [1]: 8.92 | pKi [2]: 8.70

CC(C)(Cc1ccccc1)NC[C@H](O)c1ccc(O)c2[nH]c(=O)sc12
pKi [1]: 9.40 | pKi [2]: 8.74

O=c1[nH]c2c(O)ccc([C@@H](O)CN[C@@H]3CCCc4ccccc43)c2s1
pKi [1]: 8.03 | pKi [2]: 6.95

O=c1[nH]c2c(O)ccc([C@@H](O)CN[C@H]3CCCc4ccccc43)c2s1
pKi [1]: 7.52 | pKi [2]: 7.24

O=c1[nH]c2c(O)ccc([C@@H](O)CNCCCCc3ccccc3)c2s1
pKi [1]: 8.74 | pKi [2]: 7.82

C[C@@H](NC[C@H](O)c1ccc(O)c2[nH]c(=O)sc12)c1ccc2ccccc2c1
pKi [1]: 8.57 | pKi [2]: 8.85

C[C@H](NC[C@H](O)c1ccc(O)c2[nH]c(=O)sc12)c1ccc2ccccc2c1
pKi [1]: 7.31 | pKi [2]: 7.47

O=c1[nH]c2c(O)ccc([C@@H](O)CNC3CCCCCC3)c2s1
pKi [1]: 7.93 | pKi [2]: 7.10

O=c1[nH]c2c(O)ccc([C@@H](O)CN[C@@H]3CCCC[C@H]3OCc3ccccc3)c2s1
Activity [3]: 13% | pKi [1]: 8.14 | pKi [2]: 7.39

O=c1[nH]c2c(O)ccc([C@@H](O)CN[C@H]3CCCC[C@@H]3OCc3ccccc3)c2s1
pKi [1]: 6.44 | pKi [2]: 5.98

CC1(C)[C@@H]2CC[C@]1(C)[C@@H](NC[C@H](O)c1ccc(O)c3[nH]c(=O)sc13)C2
pKi [1]: 7.39 | pKi [2]: 5.82

CC1(C)[C@@H]2CC[C@@]1(C)[C@@H](NC[C@H](O)c1ccc(O)c3[nH]c(=O)sc13)C2
pKi [1]: 8.42 | pKi [2]: 6.35

O=c1[nH]c2c(O)ccc([C@@H](O)CNC3CCCCC3C3CCCCC3)c2s1 (some centres not stated)
pKi [1]: 6.82 | pKi [2]: 6.18

O=c1[nH]c2c(O)ccc([C@@H](O)CNC3CCN(CCN4CCCCCC4)CC3)c2s1
pKi [1]: 8.20 | pKi [2]: 6.73

O=c1[nH]c2c(O)ccc([C@@H](O)CNCCOc3ccccc3)c2s1
pKi [1]: 8.36 | pKi [2]: 7.75

CN(CCCNC[C@H](O)c1ccc(O)c2[nH]c(=O)sc12)c1ccccc1
pKi [1]: 9.52 | pKi [2]: 8.08

O=C(NC1CCCCC1)[C@H](Cc1ccccc1)NC[C@H](O)c1ccc(O)c2[nH]c(=O)sc12
pKi [1]: < 6.00 | pKi [2]: < 6.00

O=c1[nH]c2c(O)ccc([C@@H](O)CNCCSc3ccc(Cl)cc3)c2s1
pKi [1]: 8.52 | pKi [2]: 8.77

CCCCN(CCCC)CCNC[C@H](O)c1ccc(O)c2[nH]c(=O)sc12
pKi [1]: 7.74 | pKi [2]: 7.50

CNCC(O)c1ccc(O)c2nc(O)sc12 (configuration not stated)
pKi [1]: 8.30 | pKi [2]: 7.22
